Data taken from ChEMBL document CHEMBL6109155, “Discovery of Phenylacylpiperidine as Novel sEH Inhibitors through Scaffold Hopping of Natural Stilbene” (J Med Chem, 2025).
Active and inactive are the calls of the source. The rule behind the calls is not given here.

Columns and labels:
Mus musculus [1] = experiment: Anti-inflammatory activity in BALB/c mouse model of carrageenan-induced paw edema assessed as inhibition of paw swelling at 20 mg/kg, po measured for 0.5 to 6 hrs relative to control; format: functional; details: time 0.5-6 hrs
[2] = molecular target: T1, Bifunctional epoxide hydrolase 2 (Mus musculus, UniProt P34914); experiment: biochemical
T1 sequence (P34914 whole entry): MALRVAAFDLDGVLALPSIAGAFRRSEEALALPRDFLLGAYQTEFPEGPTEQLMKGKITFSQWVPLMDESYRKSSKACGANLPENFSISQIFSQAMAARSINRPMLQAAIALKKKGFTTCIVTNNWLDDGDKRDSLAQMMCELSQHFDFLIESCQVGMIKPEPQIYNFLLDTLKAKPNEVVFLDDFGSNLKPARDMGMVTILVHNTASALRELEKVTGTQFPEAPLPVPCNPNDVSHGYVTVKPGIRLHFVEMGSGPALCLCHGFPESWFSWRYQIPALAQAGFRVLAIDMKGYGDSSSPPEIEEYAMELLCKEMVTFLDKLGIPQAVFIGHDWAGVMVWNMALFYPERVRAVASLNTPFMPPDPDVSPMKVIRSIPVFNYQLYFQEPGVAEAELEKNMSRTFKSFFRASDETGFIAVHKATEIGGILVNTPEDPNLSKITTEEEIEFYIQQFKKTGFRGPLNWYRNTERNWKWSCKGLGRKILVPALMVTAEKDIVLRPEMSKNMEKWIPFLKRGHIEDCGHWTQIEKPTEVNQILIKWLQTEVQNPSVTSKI
Description: Inhibition of C57BL/6J mouse brain sEH using 14,15-EET as substrate preincubated for 15 mins followed by substrate addition by HPLC-MS analysis

Mus musculus [3] = experiment: Anti-inflammatory activity in BALB/c mouse model of carrageenan-induced paw edema assessed as inhibition of paw swelling at 20 mg/kg, po measured for 0.5 hrs relative to control; format: functional
Mus musculus [4] = experiment: Anti-inflammatory activity in BALB/c mouse model of carrageenan-induced paw edema at 20 mg/kg, po measured for 0.5 to 6 hrs; format: functional, organism-based; details: time 0.5-6 hrs
Mus musculus [5] = experiment: Anti-inflammatory activity in BALB/c mouse model of carrageenan-induced paw edema assessed as inhibition of paw swelling at 20 mg/kg, po measured for 6 hrs relative to control; format: functional
[6] = Ratio of Cmax in liver to plasma in C57BL/6J mouse at 20 mg/kg, po measured for 24 hrs; format: ADME, organism-based; details: liver and plasma
[7] = Cmax in plasma of C57BL/6J mouse at 20 mg/kg, po measured for 24 hrs; format: ADME, organism-based
[8] = Ratio of AUC (0 to 24 hrs) in kidney to plasma in C57BL/6J mouse at 20 mg/kg, po measured for 24 hrs; format: ADME, organism-based; details: kidney and plasma, read-out: Ratio AUC
Mus musculus [9] = experiment: Anti-inflammatory activity in BALB/c mouse model of carrageenan-induced paw edema assessed as inhibition of paw swelling at 20 mg/kg, po measured for 2 hrs relative to control; format: functional
[10] = Ratio of AUC (0 to 24 hrs) in brain to plasma in C57BL/6J mouse at 20 mg/kg, po measured for 24 hrs; format: ADME, organism-based; details: brain and plasma, read-out: Ratio AUC
Mus musculus [11] = experiment: Analgesic effect in BALB/c mouse model of acetic acid-induced writhing assessed as reduction in number of writhing episodes at 20 mg/kg, po pretreated for 1 hr followed by acetic acid treatment and measured after 5 to 35 mins relative to control; format: functional; design: scale not given: the % may be the effect or the level left; details: time 65-95 min
[12] = AUC (0 to 24 hrs) in plasma of C57BL/6J mouse at 20 mg/kg, po measured for 24 hrs; format: ADME, organism-based
[13] = AUC (0 to 24 hrs) in kidney of C57BL/6J mouse at 20 mg/kg, po measured for 24 hrs; format: ADME, organism-based
[14] = Ratio of AUC (0 to 24 hrs) in liver to plasma in C57BL/6J mouse at 20 mg/kg, po measured for 24 hrs; format: ADME, organism-based; details: liver and plasma, read-out: Ratio AUC
[15] = Ratio of Cmax in kidney to plasma in C57BL/6J mouse at 20 mg/kg, po measured for 24 hrs; format: ADME, organism-based; details: kidney and plasma
[16] = Cmax in kidney of C57BL/6J mouse at 20 mg/kg, po measured for 24 hrs; format: ADME, organism-based
[17] = Ratio of Cmax in brain to plasma in C57BL/6J mouse at 20 mg/kg, po measured for 24 hrs; format: ADME, organism-based; details: brain and plasma
[18] = AUC (0 to 24 hrs) in liver of C57BL/6J mouse at 20 mg/kg, po measured for 24 hrs; format: ADME, organism-based
[19] = Cmax in liver of C57BL/6J mouse at 20 mg/kg, po measured for 24 hrs; format: ADME, organism-based
[20] = AUC (0 to 24 hrs) in brain of C57BL/6J mouse at 20 mg/kg, po measured for 24 hrs; format: ADME, organism-based
[21] = Cmax in brain of C57BL/6J mouse at 20 mg/kg, po measured for 24 hrs; format: ADME, organism-based

Structure (SMILES)	IC50 [2] [nM]	other results
CN(C)C(=O)NC1CCN(C(=O)Cc2ccc3c(c2)OCO3)CC1	64900	
CCC(=O)N1CCC(NC(=O)NC2CCN(C(=O)Cc3cc(OC)cc(OC)c3)CC2)CC1	163	
CN(C)C(=O)N1CCC(NC(=O)Cc2ccc3c(c2)OCO3)CC1	6390	
COc1ccc(CC(=O)N2CCC(NC(=O)NCC(C)C)CC2)cc1OC	20.2	
CCC(=O)N1CCC(NC(=O)Nc2ccc(OC(F)(F)F)cc2)CC1		inhibition in vivo at 20 mg/kg (Mus musculus [1]; Mus musculus, BALB/c): 28.8%
O=C(Cc1ccccn1)Nc1cccc(CC(=O)N2CCC(NC(=O)NCC3CCOCC3)CC2)c1	55.3	
CC(C)CNC(=O)NC1CCN(C(=O)Cc2ccc3c(c2)OCO3)CC1	25.3	
CC(C)CNC(=O)N1CCC(NC(=O)Cc2ccc3c(c2)OCO3)CC1	3470	
CC(C)CNC(=O)NCCNC(=O)Cc1ccc2c(c1)OCO2	4310	
O=C(Cc1ccc2c(c1)OCO2)NCCCCNC(=O)NCC1CCOCC1	1270	
CC(C)CNC(=O)NCCCNC(=O)Cc1ccc2c(c1)OCO2	4500	
CC(C)CNC(=O)NCCCC#Cc1ccc2c(c1)OCO2	21.9	
CCC(=O)N1CCC(CNc2c(NC3CCN(C(=O)Cc4cc(OC)cc(OC)c4)CC3)c(=O)c2=O)CC1	164000	
CC(C)C(=O)NCCC/C=C/c1ccc2c(c1)OCO2	4950	
CN(C)C(=O)NCCCC/C=C/c1ccc2c(c1)OCO2	6440	
CC(C)CNC(=O)NCCCCCNC(=O)Cc1ccc2c(c1)OCO2	261	
CCC(=O)N1CCC(CNC(=O)NC2CCN(C(=O)Cc3cccc(OC(F)(F)F)c3)CC2)CC1	18.8	
COc1cc(CC(=O)N2CCC(NC(=O)NCCN(C)C)CC2)cc(OC)c1	15700	
CC(C)CNC(=O)NCC1CCN(C(=O)Cc2ccc3c(c2)OCO3)CC1	211	
CC(C)CNC(=O)NC1CCN(CCc2ccc3c(c2)OCO3)CC1	1330	
CCC(=O)N1CCC(CNC(=O)NC2CCN(C(=O)Cc3cccc(NC(=O)Cc4ccccn4)c3)CC2)CC1	20.3	
CN(C)C(=O)NCCC/C=C/c1ccc2c(c1)OCO2	260	
CCC(=O)N1CCC(CNC(=O)Nc2ccc3c(c2)CNC(c2cc(OC)cc(OC)c2)C3)CC1 (stereo not drawn)	39.7	
CCC(=O)NCCCCNC(=O)NC1CCN(C(=O)Cc2cc(OC)cc(OC)c2)CC1	1630	

Further lines, with some results ahead:

IC50 [2] [nM]	Structure (SMILES)	other results
1.95	COc1cc(OC)cc(-c2cc3ccc(NC(=O)NCc4ccc(OC(F)(F)F)cc4)cc3cn2)c1	Imax (Mus musculus [1]): 12.7%
14.6	COc1cc(CC(=O)N2CCC(NC(=O)NCc3ccc(C#N)cc3)CC2)cc(OC)c1	
0.85	O=C(NCc1ccc(OC(F)(F)F)cc1)NC1CCN(C(=O)Cc2ccc3c(c2)OCO3)CC1	Imax (Mus musculus [3]): 36.3%; Activity (Mus musculus [4]): Active
2.24	O=C(NCc1ccc(OC(F)(F)F)cc1)NC1CCN(C(=O)Cc2ccc(OC(F)(F)F)cc2)CC1	
18.5	COc1cc(CC(=O)N2CCC(NC(=O)NCC3CCOCC3)CC2)cc(OC)c1	
10.9	COc1cc(CC(=O)N2CCC(NC(=O)NCC(C)C)CC2)cc(OC)c1	
3.77	CS(=O)(=O)c1ccc(CC(=O)N2CCC(NC(=O)NCc3ccc(OC(F)(F)F)cc3)CC2)cc1	Imax (Mus musculus [3]): 35.9%
9.61	CCC(=O)N1CCC(CNC(=O)NC2CCN(C(=O)Cc3ccc4c(c3)OCO4)CC2)CC1	
1.88	CC(C)CNC(=O)NCCCCNC(=O)Cc1ccc2c(c1)OCO2	
3.1	O=C(Cc1ccccn1)Nc1cccc(CC(=O)N2CCC(NC(=O)NCc3ccc(OC(F)(F)F)cc3)CC2)c1	
4.23	COc1ccc(CC(=O)N2CCC(NC(=O)NCc3ccc(OC(F)(F)F)cc3)CC2)cc1OC	
4.34	COc1cc(OC)cc(C2Cc3ccc(NC(=O)NCc4ccc(OC(F)(F)F)cc4)cc3CN2)c1 (stereo not drawn)	
10.1	CCC(=O)N1CCC(CNC(=O)NC2CCN(C(=O)Cc3ccc(OC(F)(F)F)cc3)CC2)CC1	
2.25	COc1cc(OC)cc(C(=O)N2CCC(NC(=O)NCc3ccc(OC(F)(F)F)cc3)CC2)c1	
5.24	CCC(=O)N1CCC(CNC(=O)Nc2ccc3cc(-c4cc(OC)cc(OC)c4)ncc3c2)CC1	
11.3	CC(C)CNC(=O)NCCC/C=C/c1ccc2c(c1)OCO2	
6.13	CCC(=O)N1CCC(CNC(=O)NC2CCN(C(=O)Cc3cccc(OC)c3)CC2)CC1	
15.7	COc1cc(CC(=O)N2CCC(NC(=O)Nc3ccc(OC(F)(F)F)cc3)CC2)cc(OC)c1	
0.73	COc1cc(CCC(=O)N2CCC(NC(=O)NCc3ccc(OC(F)(F)F)cc3)CC2)cc(OC)c1	Imax (Mus musculus [3]): 28.3%; Activity (Mus musculus [4]): Active
10.8	CCC(=O)N1CCC(CNC(=O)NC2CCN(C(=O)Cc3cc(OC)cc(OC)c3)CC2)CC1	inhibition in vivo at 20 mg/kg (Mus musculus [5]): 37.6%; Kp at 24 h [6]: 77.5; Cmax [7]: 76.7 ng/mL; Kp at 24 h [8]: 135; inhibition in vivo at 20 mg/kg (Mus musculus [9]): 50.8%; Kp at 24 h [10]: 0.53; Activity (Mus musculus [11]): 60%; AUC(0-t) at 24 h [12]: 323 ng·h/mL; AUC(0-t) at 24 h [13]: 43400 ng·h/mL; Kp at 24 h [14]: 237; Kp at 24 h [15]: 52.3; Cmax [16]: 4010 ng/g; Kp at 24 h [17]: 0.59; AUC(0-t) at 24 h [18]: 76700 ng·h/mL; Cmax [19]: 5940 ng/g; inhibition in vivo at 20 mg/kg (Mus musculus [3]; Mus musculus, BALB/c): 38.6%; AUC(0-t) at 24 h [20]: 173 ng·h/mL; Cmax [21]: 44.9 ng/g
0.54	COc1cccc(CC(=O)N2CCC(NC(=O)NCc3ccc(OC(F)(F)F)cc3)CC2)c1	Activity (Mus musculus [4]): Active
0.91	O=C(NCc1ccc(OC(F)(F)F)cc1)NC1CCN(C(=O)Cc2cccc(OC(F)(F)F)c2)CC1	Imax (Mus musculus [3]): 39.7%; Activity (Mus musculus [4]): Active
